Experimental data: ChEMBL document CHEMBL1201862, “PubChem BioAssay data set” (2004)
Values belong to the molecule of their own block, whether it stands above or below them. Activity calls are given as the source filed them.

What was measured:
[1] = biological target: Endoplasmic reticulum aminopeptidase 1 (Homo sapiens, UniProt Q9NZ08); experiment: ERAP1 aminopeptidase inhibitors, dose response, biochemical, cherry-pick, set 2, plate reader (AID 743314)
[2] = biological target: 1-phosphatidylinositol 4,5-bisphosphate phosphodiesterase gamma-1 (Homo sapiens, UniProt P19174); experiment: Counterscreen for inhibitors of phospholipase C isozymes (PLC-B3): Fluorescence-based biochemical high throughput dose response assay to identify inhibitors of phospholipase C isozymes (PLC-gamma1).
[3] = biological target: 1-phosphatidylinositol 4,5-bisphosphate phosphodiesterase beta-3 (Homo sapiens, UniProt Q01970); experiment: Fluorescence-based biochemical high throughput dose response assay to identify inhibitors of phospholipase C isozymes (PLC-B3).
[4] = biological target: Disintegrin and metalloproteinase domain-containing protein 17 (Homo sapiens, UniProt P78536); experiment: exosite inhibitors of ADAM17, dose response, biochemical (AID 743260)
[5] = ADAM10 protease inhibitors, dose response, selectivity assay for ADAM17 exosite inhibitor project, biochemical, FRET peptide substrate, recombinant human ADAM10 (AID 743259);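 further: ADAM10 enzyme cleaving a FRET peptide substrate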
[6] = Luminescence-based cell-based high throughput dose response assay to identify activators of the DAF-12 from the parasite S. stercoralis (ssDAF-12).; format: functional
[7] = biological target: T1, Oxysterols receptor LXR-beta (Homo sapiens, UniProt P55055); experiment: LXR agonists, Gal4 luciferase reporter, dose response, counter-screen for ssDAF-12 agonist project, cell-based, luminescence, HEK293, S. stercoralis campaign (AID 720737); format: functional; details: read-out: IC50 (the source's name)
T1 sequence (P55055 whole entry): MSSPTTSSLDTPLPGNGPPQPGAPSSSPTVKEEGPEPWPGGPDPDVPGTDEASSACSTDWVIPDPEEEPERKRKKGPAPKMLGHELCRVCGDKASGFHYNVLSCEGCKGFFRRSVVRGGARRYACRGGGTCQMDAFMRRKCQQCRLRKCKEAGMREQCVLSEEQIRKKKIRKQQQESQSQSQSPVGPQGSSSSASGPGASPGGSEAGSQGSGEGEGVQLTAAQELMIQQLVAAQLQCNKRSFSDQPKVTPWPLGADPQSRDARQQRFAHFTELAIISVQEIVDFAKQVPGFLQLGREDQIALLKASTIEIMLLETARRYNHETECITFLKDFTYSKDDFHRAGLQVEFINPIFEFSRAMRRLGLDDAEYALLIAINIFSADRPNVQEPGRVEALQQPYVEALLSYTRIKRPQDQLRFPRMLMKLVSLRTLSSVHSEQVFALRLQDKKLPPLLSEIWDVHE

[8] = biological target: T2, Sentrin-specific protease 8 (Homo sapiens, UniProt Q96LD8); format: functional;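 further: luminescence read-out of SENP8 inhibition, dose-response confirmation following an ultra-high-throughput screen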
T2 sequence (Q96LD8 whole entry): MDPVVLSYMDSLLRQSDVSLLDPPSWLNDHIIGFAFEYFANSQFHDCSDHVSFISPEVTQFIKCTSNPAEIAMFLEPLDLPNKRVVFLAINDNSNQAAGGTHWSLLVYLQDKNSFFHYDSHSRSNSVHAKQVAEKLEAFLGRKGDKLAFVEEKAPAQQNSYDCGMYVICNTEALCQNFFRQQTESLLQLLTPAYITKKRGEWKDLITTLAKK

[9] = biological target: T3, Sentrin-specific protease 6 (Homo sapiens, UniProt Q9GZR1); format: functional;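 further: Luminescence-based dose-response confirmatory assay of SENP6 inhibition, following up an ultra-high-throughput screen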
T3 sequence (Q9GZR1 whole entry): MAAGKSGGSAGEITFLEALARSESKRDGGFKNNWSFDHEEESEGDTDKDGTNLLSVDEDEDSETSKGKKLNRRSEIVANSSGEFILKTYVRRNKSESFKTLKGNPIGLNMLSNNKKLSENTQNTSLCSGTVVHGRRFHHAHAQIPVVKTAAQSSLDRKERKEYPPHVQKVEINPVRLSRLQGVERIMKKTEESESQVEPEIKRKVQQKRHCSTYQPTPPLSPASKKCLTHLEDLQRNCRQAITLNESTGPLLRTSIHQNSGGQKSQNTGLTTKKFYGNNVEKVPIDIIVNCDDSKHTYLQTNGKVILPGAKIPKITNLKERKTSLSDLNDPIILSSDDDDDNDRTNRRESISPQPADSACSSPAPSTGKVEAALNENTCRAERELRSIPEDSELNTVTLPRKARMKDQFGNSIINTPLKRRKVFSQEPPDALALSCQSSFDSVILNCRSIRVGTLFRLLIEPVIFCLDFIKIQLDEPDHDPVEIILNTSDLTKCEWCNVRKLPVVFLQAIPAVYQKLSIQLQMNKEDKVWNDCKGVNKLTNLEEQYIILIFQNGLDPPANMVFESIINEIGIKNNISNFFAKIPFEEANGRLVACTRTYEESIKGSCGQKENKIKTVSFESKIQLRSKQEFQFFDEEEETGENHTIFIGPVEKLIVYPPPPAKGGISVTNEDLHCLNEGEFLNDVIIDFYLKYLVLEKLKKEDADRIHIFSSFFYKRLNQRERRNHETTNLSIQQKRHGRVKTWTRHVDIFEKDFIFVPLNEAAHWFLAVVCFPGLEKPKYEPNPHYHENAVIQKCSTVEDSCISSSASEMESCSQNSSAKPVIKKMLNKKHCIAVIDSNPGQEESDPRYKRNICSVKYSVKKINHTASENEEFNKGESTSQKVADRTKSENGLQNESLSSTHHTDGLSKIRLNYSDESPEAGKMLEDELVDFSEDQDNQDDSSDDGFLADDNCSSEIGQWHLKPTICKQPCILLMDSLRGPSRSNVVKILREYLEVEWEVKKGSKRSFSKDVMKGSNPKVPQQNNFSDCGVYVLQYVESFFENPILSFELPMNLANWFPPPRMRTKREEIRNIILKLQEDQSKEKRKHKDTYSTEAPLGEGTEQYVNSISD

Cytochrome P450 2D6 = Cytochrome P450 2D6 (Homo sapiens, UniProt P10635);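 further: CYP2D6 member of a cytochrome P450 panel assay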
Cytochrome P450 2C9 = Cytochrome P450 2C9 (Homo sapiens, UniProt P11712)
[10] = biological target: T4, Sentrin-specific protease 7 (Homo sapiens, UniProt Q9BQF6); format: functional;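 further: Luminescence-based dose-response confirmation of ultra-high-throughput screening hits, measuring inhibition of SENP7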
T4 sequence (Q9BQF6 whole entry): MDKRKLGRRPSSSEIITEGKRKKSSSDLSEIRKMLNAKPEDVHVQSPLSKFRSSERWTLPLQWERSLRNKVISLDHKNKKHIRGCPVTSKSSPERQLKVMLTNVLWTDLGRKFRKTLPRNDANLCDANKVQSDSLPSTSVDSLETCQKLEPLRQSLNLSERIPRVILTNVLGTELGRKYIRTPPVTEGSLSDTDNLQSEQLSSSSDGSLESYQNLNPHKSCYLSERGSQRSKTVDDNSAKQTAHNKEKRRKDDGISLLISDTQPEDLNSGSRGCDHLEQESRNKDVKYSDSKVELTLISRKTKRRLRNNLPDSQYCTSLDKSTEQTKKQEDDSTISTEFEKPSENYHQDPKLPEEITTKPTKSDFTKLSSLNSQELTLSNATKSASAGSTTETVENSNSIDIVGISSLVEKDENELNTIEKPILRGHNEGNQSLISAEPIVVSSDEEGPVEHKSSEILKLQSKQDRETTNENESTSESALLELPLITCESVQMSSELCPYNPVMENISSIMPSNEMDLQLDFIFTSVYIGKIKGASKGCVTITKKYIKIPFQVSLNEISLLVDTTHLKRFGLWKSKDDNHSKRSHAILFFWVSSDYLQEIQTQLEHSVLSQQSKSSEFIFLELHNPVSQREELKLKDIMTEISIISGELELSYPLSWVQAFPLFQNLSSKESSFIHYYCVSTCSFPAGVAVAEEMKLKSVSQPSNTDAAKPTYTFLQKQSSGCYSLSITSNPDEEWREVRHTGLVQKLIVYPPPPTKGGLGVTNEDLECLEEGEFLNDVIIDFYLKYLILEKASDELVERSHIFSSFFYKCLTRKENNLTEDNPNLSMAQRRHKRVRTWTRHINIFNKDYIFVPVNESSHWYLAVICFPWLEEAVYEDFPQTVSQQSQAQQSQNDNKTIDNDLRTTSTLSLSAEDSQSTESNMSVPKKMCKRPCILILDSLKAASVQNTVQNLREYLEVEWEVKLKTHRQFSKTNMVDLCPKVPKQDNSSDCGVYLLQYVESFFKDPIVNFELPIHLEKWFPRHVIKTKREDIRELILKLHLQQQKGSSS

[11] = biological target: T1, Oxysterols receptor LXR-beta; format: functional, cell-based
Caspase-3 = biological target: T5, Caspase-3 (Homo sapiens, UniProt P42574); format: functional;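 further: Dose-response selectivity test against caspase-3 for candidate inhibitors of sentrin-specific proteases (SENPs)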
T5 sequence (P42574 whole entry): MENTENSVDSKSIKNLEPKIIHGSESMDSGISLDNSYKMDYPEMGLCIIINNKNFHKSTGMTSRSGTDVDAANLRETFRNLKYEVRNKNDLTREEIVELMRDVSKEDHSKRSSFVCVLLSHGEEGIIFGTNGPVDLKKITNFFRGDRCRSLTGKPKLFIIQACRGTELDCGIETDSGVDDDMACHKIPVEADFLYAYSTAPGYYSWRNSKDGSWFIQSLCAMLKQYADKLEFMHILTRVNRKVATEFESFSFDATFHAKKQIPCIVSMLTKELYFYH

Chain of 1-phosphatidylinositol 4,5-bisphosphate phosphodiesterase gamma-1 (P19174 whole entry): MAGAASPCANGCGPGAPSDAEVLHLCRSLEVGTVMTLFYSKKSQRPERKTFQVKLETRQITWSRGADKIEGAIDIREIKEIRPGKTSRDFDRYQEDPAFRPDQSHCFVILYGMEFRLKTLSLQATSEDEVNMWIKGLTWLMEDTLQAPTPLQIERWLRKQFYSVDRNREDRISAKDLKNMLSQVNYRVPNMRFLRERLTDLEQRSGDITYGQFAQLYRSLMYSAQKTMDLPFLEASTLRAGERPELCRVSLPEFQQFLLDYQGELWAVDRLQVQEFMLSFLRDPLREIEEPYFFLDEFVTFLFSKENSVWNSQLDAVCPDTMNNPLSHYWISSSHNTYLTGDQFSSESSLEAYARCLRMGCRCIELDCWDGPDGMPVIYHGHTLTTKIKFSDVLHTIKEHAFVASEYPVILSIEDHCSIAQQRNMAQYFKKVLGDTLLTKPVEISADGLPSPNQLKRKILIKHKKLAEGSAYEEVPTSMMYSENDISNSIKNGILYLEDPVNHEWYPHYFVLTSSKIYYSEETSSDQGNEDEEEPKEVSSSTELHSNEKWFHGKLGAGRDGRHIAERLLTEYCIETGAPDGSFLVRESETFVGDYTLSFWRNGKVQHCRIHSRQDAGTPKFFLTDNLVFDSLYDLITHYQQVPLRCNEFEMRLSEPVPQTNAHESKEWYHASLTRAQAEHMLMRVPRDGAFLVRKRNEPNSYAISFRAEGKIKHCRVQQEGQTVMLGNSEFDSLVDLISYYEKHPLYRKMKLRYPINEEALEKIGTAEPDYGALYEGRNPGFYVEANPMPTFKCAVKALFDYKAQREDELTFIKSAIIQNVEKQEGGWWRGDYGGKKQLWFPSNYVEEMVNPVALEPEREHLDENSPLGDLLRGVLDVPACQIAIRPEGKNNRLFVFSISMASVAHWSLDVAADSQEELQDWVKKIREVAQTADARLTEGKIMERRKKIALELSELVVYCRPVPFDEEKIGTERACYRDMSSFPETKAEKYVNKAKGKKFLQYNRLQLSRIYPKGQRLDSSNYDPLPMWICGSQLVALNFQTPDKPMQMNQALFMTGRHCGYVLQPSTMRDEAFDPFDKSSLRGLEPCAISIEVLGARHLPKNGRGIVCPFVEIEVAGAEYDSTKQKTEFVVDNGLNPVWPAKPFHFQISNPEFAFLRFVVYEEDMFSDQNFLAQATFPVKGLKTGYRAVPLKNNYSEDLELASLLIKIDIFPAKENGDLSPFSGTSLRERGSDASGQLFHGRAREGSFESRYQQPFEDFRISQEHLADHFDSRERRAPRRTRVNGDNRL
Chain of Endoplasmic reticulum aminopeptidase 1 (Q9NZ08 whole entry): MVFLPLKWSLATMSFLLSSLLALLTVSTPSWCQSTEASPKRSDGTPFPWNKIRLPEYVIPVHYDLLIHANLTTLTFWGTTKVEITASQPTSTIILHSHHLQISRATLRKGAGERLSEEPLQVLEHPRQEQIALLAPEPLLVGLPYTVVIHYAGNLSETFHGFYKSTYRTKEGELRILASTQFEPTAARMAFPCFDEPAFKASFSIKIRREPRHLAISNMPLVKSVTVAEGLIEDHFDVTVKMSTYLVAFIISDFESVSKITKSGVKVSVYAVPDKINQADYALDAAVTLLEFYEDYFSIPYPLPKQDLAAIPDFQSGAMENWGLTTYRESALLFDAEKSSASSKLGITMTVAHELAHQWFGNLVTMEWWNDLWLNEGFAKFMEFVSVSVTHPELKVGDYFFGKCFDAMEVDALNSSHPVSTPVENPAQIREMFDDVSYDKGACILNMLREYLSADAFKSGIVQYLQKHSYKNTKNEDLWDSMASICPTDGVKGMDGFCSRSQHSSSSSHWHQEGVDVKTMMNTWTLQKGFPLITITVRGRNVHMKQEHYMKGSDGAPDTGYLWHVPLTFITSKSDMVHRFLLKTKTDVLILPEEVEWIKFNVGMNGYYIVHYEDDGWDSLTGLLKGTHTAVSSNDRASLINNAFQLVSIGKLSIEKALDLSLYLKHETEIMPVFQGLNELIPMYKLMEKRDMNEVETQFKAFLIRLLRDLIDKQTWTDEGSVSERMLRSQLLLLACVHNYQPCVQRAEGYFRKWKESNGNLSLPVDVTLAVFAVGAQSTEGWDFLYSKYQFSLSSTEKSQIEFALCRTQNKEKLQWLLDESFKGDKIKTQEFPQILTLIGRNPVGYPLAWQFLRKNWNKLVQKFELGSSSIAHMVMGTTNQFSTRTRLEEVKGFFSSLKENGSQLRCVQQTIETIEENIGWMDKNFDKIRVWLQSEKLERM
Chain of Cytochrome P450 2C9 (P11712 whole entry): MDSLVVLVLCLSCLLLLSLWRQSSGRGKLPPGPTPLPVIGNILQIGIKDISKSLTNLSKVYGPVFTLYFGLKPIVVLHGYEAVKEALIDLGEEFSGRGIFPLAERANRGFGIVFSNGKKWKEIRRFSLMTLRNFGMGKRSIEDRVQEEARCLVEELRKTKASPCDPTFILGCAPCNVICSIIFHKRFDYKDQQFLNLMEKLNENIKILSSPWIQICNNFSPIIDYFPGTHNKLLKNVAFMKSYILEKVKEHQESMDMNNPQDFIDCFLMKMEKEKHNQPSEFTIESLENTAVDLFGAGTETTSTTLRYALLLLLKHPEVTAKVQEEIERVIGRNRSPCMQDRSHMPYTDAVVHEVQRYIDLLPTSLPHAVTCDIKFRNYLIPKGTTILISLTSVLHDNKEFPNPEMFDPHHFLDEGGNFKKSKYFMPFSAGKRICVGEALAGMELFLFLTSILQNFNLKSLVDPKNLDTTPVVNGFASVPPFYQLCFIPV
Chain of 1-phosphatidylinositol 4,5-bisphosphate phosphodiesterase beta-3 (Q01970 whole entry, the tested form may be a part): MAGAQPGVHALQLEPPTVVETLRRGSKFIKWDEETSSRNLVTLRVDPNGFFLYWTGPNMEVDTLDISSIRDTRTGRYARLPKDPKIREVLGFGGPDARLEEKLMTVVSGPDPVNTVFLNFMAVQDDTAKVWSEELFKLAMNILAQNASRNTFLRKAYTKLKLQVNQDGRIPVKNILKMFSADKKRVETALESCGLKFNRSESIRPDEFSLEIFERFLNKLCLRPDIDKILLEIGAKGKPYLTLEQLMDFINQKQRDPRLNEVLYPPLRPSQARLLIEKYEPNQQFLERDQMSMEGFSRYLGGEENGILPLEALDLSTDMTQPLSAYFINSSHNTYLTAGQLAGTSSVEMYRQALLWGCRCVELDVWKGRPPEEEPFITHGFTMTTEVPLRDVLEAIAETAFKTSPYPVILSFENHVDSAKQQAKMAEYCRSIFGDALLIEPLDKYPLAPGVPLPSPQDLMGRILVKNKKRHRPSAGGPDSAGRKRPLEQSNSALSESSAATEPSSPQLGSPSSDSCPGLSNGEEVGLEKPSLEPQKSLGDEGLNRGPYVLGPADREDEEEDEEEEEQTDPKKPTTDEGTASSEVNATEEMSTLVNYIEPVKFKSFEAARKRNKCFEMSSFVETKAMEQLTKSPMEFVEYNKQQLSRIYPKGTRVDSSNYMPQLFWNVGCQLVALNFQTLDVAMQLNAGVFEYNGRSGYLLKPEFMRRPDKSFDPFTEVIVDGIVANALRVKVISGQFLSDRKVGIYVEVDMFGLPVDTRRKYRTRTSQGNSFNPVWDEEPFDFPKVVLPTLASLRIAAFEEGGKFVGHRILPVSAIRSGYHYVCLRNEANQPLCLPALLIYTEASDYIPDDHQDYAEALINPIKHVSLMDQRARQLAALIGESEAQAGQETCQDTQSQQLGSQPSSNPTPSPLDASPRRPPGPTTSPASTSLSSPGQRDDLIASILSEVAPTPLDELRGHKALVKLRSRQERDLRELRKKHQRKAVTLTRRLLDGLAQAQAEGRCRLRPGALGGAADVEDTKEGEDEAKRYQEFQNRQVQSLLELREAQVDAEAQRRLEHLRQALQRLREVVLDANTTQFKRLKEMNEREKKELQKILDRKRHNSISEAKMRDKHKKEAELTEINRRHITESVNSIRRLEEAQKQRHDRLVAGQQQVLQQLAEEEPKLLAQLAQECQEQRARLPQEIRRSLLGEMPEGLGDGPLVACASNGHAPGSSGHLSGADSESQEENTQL
Chain of Disintegrin and metalloproteinase domain-containing protein 17 (P78536 whole entry, the tested form may be a part): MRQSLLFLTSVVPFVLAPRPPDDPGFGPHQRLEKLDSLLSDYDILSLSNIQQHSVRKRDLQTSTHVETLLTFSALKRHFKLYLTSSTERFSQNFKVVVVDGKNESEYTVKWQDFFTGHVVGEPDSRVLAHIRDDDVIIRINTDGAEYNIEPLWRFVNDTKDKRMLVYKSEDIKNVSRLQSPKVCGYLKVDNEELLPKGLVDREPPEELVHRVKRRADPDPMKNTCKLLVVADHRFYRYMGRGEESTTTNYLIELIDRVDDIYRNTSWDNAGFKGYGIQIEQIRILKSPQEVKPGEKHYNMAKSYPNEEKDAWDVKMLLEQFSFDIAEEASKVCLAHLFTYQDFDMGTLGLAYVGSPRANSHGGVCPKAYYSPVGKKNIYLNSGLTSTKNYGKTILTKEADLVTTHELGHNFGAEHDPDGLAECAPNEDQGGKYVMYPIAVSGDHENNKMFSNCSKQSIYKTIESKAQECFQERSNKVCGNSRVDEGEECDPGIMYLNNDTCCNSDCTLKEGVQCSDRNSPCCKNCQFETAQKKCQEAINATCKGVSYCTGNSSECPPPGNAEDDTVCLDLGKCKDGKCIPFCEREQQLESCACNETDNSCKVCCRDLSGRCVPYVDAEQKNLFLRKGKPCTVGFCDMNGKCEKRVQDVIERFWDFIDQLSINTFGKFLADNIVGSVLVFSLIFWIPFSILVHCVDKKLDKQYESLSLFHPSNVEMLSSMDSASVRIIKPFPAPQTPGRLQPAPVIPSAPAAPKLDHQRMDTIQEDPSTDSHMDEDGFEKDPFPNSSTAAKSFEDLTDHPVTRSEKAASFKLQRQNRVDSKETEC

AC50 [1]: 11.8 µM (active)
Compound: Cc1cc(=O)oc2c(CN3CCCC3)c(O)ccc12

IC50 [2]: > 122 µM (inactive)
IC50 [3]: > 122 µM (inactive)
Compound: COc1ccnc2c1c(=O)n(Cc1ccc(Cl)cc1Cl)c(=O)n2C

IC50 [4]: > 69.5 µM (inactive)
Compound: Cc1ccc(C2=NS(=O)(=O)N(C)C(C(=O)Nc3ccc4c(c3)OCO4)=C2)cc1
IC50 [5]: 19 µM (inactive)

Compound: CCOc1ccccc1-n1nnnc1SCc1nc2ccccc2s1
IC50 [6]: > 67.5 µM (inactive)
EC50 [7]: > 67.5 µM (inactive)

IC50 [9]: 19.1 µM (active)
AC50 (Cytochrome P450 2D6): 14.1 µM (inconclusive)
AC50 (Cytochrome P450 2C9): inconclusive
IC50 [10]: 6.52 µM (active)
EC50 [11]: > 67.5 µM (inactive)
IC50 (Caspase-3): 28.7 µM (active)
Compound: O=[N+]([O-])c1cccnc1NCCNc1ncc(C(F)(F)F)cc1Cl
IC50 [8]: 23.3 µM (active)
